Assay results taken from US20240226066A1, “CARDIOPROTECTION BY AUTOPHAGY INDUCTION AND METABOLIC REPROGRAMMING” (UNIVERSITE PARIS-SACLAY, priority 2021, published 2024).

Columns and labels:
RNVCs = test: Mitochondrial ROS production with MitoSOX fluorescent probe; format: cell-based, rat; details: 1 μM, 6 h
Experimental: FIG. 12: The RNVCs were treated with 0.1% DMSO, 3 μM rapamycin, 1 μM digitoxigenin, 1 μM digoxin, 1 μM minaprin, 1 μM VP331, 1 μM LOPA87, 10 μM SG6163F for 6 h, then the ROS production was stained with the MitoSOX fluorescent probe.
The RNVCs were treated with 0.01% DMSO, 3 μM rapamycin, […], 1 μM digoxin, 1 μM minaprine, 1 μM VP331, 1 μM LOPA87, 10 μM SG6163F in a serum-free cell culture medium for 6 hours. The contents (50 μg) of a MitoSOX™ mitochondrial superoxide indicator vial (ThermoFisher, M36008) were dissolved in 13 μl dimethyl sulfoxide (DMSO) to prepare a 5 mM MitoSOX™ reagent stock solution. Next, the 5 mM MitoSOX™ reagent stock solution in PBS was diluted to prepare a 5 μM working solution of MitoSOX™ reagent. After treatment, the cells were rinsed twice with hot PBS and then incubated with a MitoSOX reagent working solution for 10 minutes at 37° C. The cells were gently rinsed three times with hot PBS. Red fluorescence was detected with a Leica confocal microscope. Nuclear fluorescence was suppressed and mitochondrial fluorescence intensity was measured using ImageJ software.
ROSs are produced or accumulated as a by-product of mitochondrial activity metabolism. Thus, the ROSs may be a consequence of mitochondrial function or may reflect a defect in the mitochondrial antioxidant system.

H9C2 cells = test: Exogenous fatty acid oxidation (XF palmitate-BSA FAO substrate with mito stress test); format: cell-based, rat; details: fatty acids as substrate
Experimental: FIG. 8C: the oxidation of the exogenous fatty acids was measured simultaneously using the XF palmitate-BSA FAO substrate kit with the mito stress test on XF cells. Before starting the test, 30 μL of XF palmitate-BSA CAM or BSA control substrate were added to the appropriate wells.
The XFe96 extracellular flow analyzer (Seahorse Biosciences, North Billerica, MA, USA) was used to measure the bioenergetic function of H9C2 cardiomyocytes. The H9C2 cells were seeded at 20 000 cells per well in XF96 cell culture microplates; all the pretreatments were carried out with serum-free cell culture medium. The Agilent Seahorse XF glycolysis stress test was performed to measure glycolytic function in the H9C2 cells; the extracellular acidification rate (ECAR) was measured sequentially by 3 injections, 10 mM glucose, 2 μM oligomycin and 50 mM 2-deoxy-D-glucose (2-DG). The Agilent Seahorse XF Cell Mito stress test measured key parameters of mitochondrial function by directly measuring the oxygen consumption rate (OCR) of the H9C2 cells. […] The oxidation of the exogenous fatty acids was measured simultaneously using the XF palmitate-BSA FAO substrate kit with the mitochondrial stress test on XF cells. […]
Next, the energy metabolism was analyzed in real time using the Seahorse technology in H9C2 cells.

C[C@]12CC[C@H](O)C[C@H]1CC[C@@H]1[C@@H]2CC[C@]2(C)[C@@H](C3=CC(=O)OC3)CC[C@]12O [digitoxigenin]
local level of mitochondrial superoxide anion (RNVCs): induced an elevation

C[C@H]1O[C@@H](O[C@H]2[C@@H](O)C[C@H](O[C@H]3[C@@H](O)CC(O[C@H]4CC[C@@]5(C)[C@H](CC[C@@H]6[C@@H]5C[C@@H](O)[C@]5(C)[C@@H](C7=CC(=O)OC7)CC[C@]65O)C4)O[C@@H]3C)O[C@@H]2C)C[C@H](O)[C@@H]1O (some centres unmarked) [digoxin]
oxidative phosphorylation (H9C2 cells): improved oxidative phosphorylation
